This passage reports Kapp results from ChEMBL document CHEMBL1146310, “Amplification of DNA-binding affinities of protoberberine alkaloids by appended polyamines” (Bioorg Med Chem Lett, 2007).

Molecules are shown by their SMILES.

This assay relates to DNA. Nature of the assay: Binding affinity to calf thymus DNA. The note with it: Bos taurus. Format: nucleic-acid assay.

Take `COc1cc2c(cc1OCCCNC(=O)C(N)CCCCN)CC[n+]1cc3c(OCCCNC(=O)C(N)CCCCN)c(OC)ccc3cc1-2` (centres undefined): the Kapp was 1.08 10^7/M.
In the case of `COc1cc2c(cc1OCCCNC(=O)C(N)CCCCNC(=O)C(N)CCCCN)CC[n+]1cc3c(OCCCNC(=O)C(N)CCCCNC(=O)C(N)CCCCN)c(OC)ccc3cc1-2` (centres undefined) it was 1.15 10^7/M.
In the case of `COc1cc2c(cc1OC)-c1cc3ccc(OC)c(OC)c3c[n+]1CC2` it was 8.72 10^3/M; in that of `COc1cc2c(cc1OCCCN)CC[n+]1cc3c(OCCCN)c(OC)ccc3cc1-2`, 2.81 10^5/M.
